Article PMC11121924, “Protopine and Allocryptopine Interactions with Plasma Proteins” (International Journal of Molecular Sciences, 2024)

Experiments:
[1] = molecular target: T1, α-1-acid glycoprotein (AAG, orosomucoid) (Homo sapiens, UniProt P02763); test: UV-Vis absorption titration (Benesi-Hildebrand); quinaldine red displacement by fluorescence; type: binding
T1 construct: gene ORM1

[2] = molecular target: T2, human serum albumin (HSA) (Homo sapiens, UniProt P02768); test: UV-Vis absorption titration (Benesi-Hildebrand); dPhe marker displacement by fluorescence; type: binding
T2 construct: gene ALB
T2 sequence (P02768 25-609): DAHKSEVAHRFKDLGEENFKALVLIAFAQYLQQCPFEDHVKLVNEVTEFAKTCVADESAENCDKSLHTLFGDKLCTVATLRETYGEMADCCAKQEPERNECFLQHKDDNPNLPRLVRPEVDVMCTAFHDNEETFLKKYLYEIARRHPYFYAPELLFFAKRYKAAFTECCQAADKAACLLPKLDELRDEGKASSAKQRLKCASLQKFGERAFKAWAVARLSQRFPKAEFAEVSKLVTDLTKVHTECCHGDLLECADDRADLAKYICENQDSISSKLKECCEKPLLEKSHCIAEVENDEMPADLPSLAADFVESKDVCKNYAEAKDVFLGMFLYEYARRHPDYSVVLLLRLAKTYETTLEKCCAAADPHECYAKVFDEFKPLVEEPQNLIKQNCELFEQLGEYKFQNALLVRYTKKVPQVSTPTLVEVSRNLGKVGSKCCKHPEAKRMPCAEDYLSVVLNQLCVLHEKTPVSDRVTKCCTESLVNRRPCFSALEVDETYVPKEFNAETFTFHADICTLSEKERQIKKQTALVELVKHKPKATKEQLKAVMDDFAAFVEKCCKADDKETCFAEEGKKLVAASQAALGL

T1 sequence (P02763 19-201): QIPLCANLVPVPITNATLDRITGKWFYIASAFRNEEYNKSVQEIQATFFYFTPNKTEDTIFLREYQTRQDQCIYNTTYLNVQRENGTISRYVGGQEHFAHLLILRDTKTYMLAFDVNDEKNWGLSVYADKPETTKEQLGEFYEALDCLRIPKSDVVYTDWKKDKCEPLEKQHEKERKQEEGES

| Structure (SMILES) | Kapp.10^4 [dm^3mol^-1] [1] | Kd [2] | Kd ([1]; read-out: Kapp.10^4 [dm^3mol^-1] (converted)) |
| --- | --- | --- | --- |
| CN1CCc2cc3c(cc2C(=O)Cc2ccc4c(c2C1)OCO4)OCO3 [PP, protopine] | 1.34 ± 0.0.03 | 46.9 µM |  |
| COc1ccc2c(c1OC)CN(C)CCc1cc3c(cc1C(=O)C2)OCO3 [ACP, allocryptopine] |  | 19.9 µM | 44.6 µM |
